Measured values as given in patent US20210189342A1, “COMPOSITIONS AND METHODS FOR MODULATING MONOCYTE AND MACROPHAGE INFLAMMATORY PHENOTYPES AND IMMUNOTHERAPY USES THEREOF” (Verseau Therapeutics, Inc., priority 2018, published 2021).

These substances were tested on IGSF6 (assay: siRNA dose response, IGSF6 mRNA knockdown, Dual-Glo Luciferase Assay). Settings: Hepa1-6 + reporter plasmid, 24 hr.
Type: cell-based, human
Description: (§1) Dose response curves for siRNAs were generated in vitro using a variety of cell lines according to Table 4.
(§2) Briefly, cells were seeded in 96-well plates and reverse transfected with siRNA, Lipofectamine® 2000 (0.5 uL/well; ThermoFisher), and, in some cases, a reporter plasmid (50 ng/well). The reporter plasmid (psiCHECK™-2, Promega) encoded both firefly luciferase and the gene of interest fused to renilla luciferase; silencing of the gene of interest results in proportional silencing of renilla luciferase but leaves firefly luciferase unaffected as an internal control.
(§3) After 24 hr incubation at 37° C., mRNA knockdown was measured using an endpoint assay. For targets without a reporter plasmid, a branched DNA (bDNA) assay was performed according to the manufacturer's instructions (QuantiGene® Singleplex Gene Expression Assay, ThermoFisher) to measure both the target gene and GAPDH (housekeeping gene) mRNA. Data are plotted as siRNA concentration (nM) vs. remaining mRNA (ratio of target gene to GAPDH, normalized to mock siRNA-transfected cells). For targets with a reporter plasmid, a Dual-Glo® Luciferase Assay was performed according to the manufacturer's instructions (Promega) to measure firefly and renilla luciferase expression. Data are plotted as siRNA concentration (nM) vs. remaining mRNA (ratio of renilla to firefly luminescence, normalized to mock siRNA-transfected cells).
(§4) For all dose response curves, a 4-parameter logistic model was applied to determine the IC50 of each siRNA sequence (Table 5 and FIG. 2). Data shown in Table 5 and FIG. 2 represent the mean of quadruplicates, +/−standard deviation.

| Substance | IC50 |
| --- | --- |
| XD-09642: siRNA targeting IGSF6 (sense 5'-gaAGcGAGAGcuAaAcAGAdTsdT-3'; antisense 5'-UCUGUUuAGCUCUCGCUUCdTsdT-3'; RNA with 2'-O-methyl and phosphorothioate modifications, case key not given here, as printed in the source, key not given here) | 0.035 nM |
| XD-09643: siRNA targeting IGSF6 (sense 5'-guGcucGGcGuAuuuuucAdTsdT-3'; antisense 5'-UGAAAAAuACGCCGAGcACdTsdT-3'; as printed in the source, key not given here) | 0.077 nM |
| XD-09645: siRNA targeting IGSF6 (sense 5'-agAAcuAuAccAuaAGAGAdTsdT-3'; antisense 5'-UCUCUuAUGGuAuAGUUCUdTsdT-3'; as printed in the source, key not given here) | 0.034 nM |
| XD-09646: siRNA targeting IGSF6 (sense 5'-ccAuAAGAGAcAuguGGAAdTsdT-3'; antisense 5'-UUCcAcAUGUCUCUuAUGGdTsdT-3'; RNA with 2'-O-methyl and phosphorothioate modifications, case key not given here, as printed in the source, key not given here) | 0.01 nM |
| XD-09647: siRNA targeting IGSF6 (sense 5'-ggccAuAGAAAcGuuuuAAdTsdT-3'; antisense 5'-UuAAAACGUUUCuAUGGCCdTsdT-3'; as printed in the source, key not given here) | 0.069 nM |
| XD-09648: siRNA targeting IGSF6 (sense 5'-ccAuAGAAAcGuuuuAAuudTsdT-3'; antisense 5'-AAUuAAAACGUUUCuAUGGdTsdT-3'; as printed in the source, key not given here) | 0.503 nM |
| XD-09649: siRNA targeting IGSF6 (sense 5'-acAuAuAucAucAgGucuudTsdT-3'; antisense 5'-AAGACCUGAUGAuAuAUGUdTsdT-3'; RNA with 2'-O-methyl and phosphorothioate modifications, case key not given here, as printed in the source, key not given here) | 0.503 nM |

Each substance was assayed on CD33 (assay: siRNA dose response, CD33 mRNA knockdown, bDNA Assay). Settings: SK-MEL-2, 24 hr.
Type: cell-based, human
Description: as §1, §2, §3, §4

| Substance | IC50 |
| --- | --- |
| XD-09732: siRNA targeting CD33 (sense 5'-ggccccAGGAcuAcucAcudTsdT-3'; antisense 5'-AGUGAGuAGUCCUGGGGCCdTsdT-3'; as printed in the source, key not given here) | 5.4 nM |
| XD-09734: siRNA targeting CD33 (sense 5'-acuccucGGuGcucAuAAudTsdT-3'; antisense 5'-AUuAUGAGcACCGAGGAGUdTsdT-3'; as printed in the source, key not given here) | 0.74 nM |
| XD-09735: siRNA targeting CD33 (sense 5'-caAcGucAccuAuguuccAdTsdT-3'; antisense 5'-UGGAAcAuAGGUGACGUUGdTsdT-3'; as printed in the source, key not given here) | 0.818 nM |
| XD-09736: siRNA targeting CD33 (sense 5'-ucAccuAuGuuccacAGAAdTsdT-3'; antisense 5'-UUCUGUGGAAcAuAGGUGAdTsdT-3'; as printed in the source, key not given here) | 0.176 nM |
| XD-09737: siRNA targeting CD33 (sense 5'-cccAAcAAcuGGuaucuuudTsdT-3'; antisense 5'-AAAGAuACcAGUUGUUGGGdTsdT-3'; RNA with 2'-O-methyl and phosphorothioate modifications, case key not given here, as printed in the source, key not given here) | 0.334 nM |
| XD-09738: siRNA targeting CD33 (sense 5'-ccAGAGcAGGAGugGuucAdTsdT-3'; antisense 5'-UGAACcACUCCUGCUCUGGdTsdT-3'; RNA with 2'-O-methyl and phosphorothioate modifications, case key not given here, as printed in the source, key not given here) | 0.22 nM |

The substances below were run on LST1 (assay: siRNA dose response, LST1 mRNA knockdown, bDNA Assay). Settings: THP-1, 24 hr.
Type: cell-based, human
Description: as §1, §2, §3, §4

| Substance | IC50 |
| --- | --- |
| XD-09750: siRNA targeting LST1 (sense 5'-cuGAucAuuucGccuAAAAdTsdT-3'; antisense 5'-UUUuAGGCGAAAUGAUcAGdTsdT-3'; RNA with 2'-O-methyl and phosphorothioate modifications, case key not given here, as printed in the source, key not given here) | 3.59 nM |
| XD-09751: siRNA targeting LST1 (sense 5'-cauuucGccuAAAaGAGcAdTsdT-3'; antisense 5'-UGCUCUUUuAGGCGAAAUGdTsdT-3'; RNA with 2'-O-methyl and phosphorothioate modifications, case key not given here, as printed in the source, key not given here) | 1.54 nM |
| XD-09752: siRNA targeting LST1 (sense 5'-gccuAAAAGAGcAaGGAcudTsdT-3'; antisense 5'-AGUCCUUGCUCUUUuAGGCdTsdT-3'; RNA with 2'-O-methyl and phosphorothioate modifications, case key not given here, as printed in the source, key not given here) | 0.737 nM |
| XD-09754: siRNA targeting LST1 (sense 5'-caAGGAGGAuccAaGAGcudTsdT-3'; antisense 5'-AGCUCUUGGAUCCUCCUUGdTsdT-3'; RNA with 2'-O-methyl and phosphorothioate modifications, case key not given here, as printed in the source, key not given here) | 0.052 nM |
| XD-09755: siRNA targeting LST1 (sense 5'-ggAuccAAGAGcugAcuAudTsdT-3'; antisense 5'-AuAGUcAGCUCUUGGAUCCdTsdT-3'; RNA with 2'-O-methyl and phosphorothioate modifications, case key not given here, as printed in the source, key not given here) | 0.046 nM |
| XD-09756: siRNA targeting LST1 (sense 5'-ucucGAGccuccGuucAAAdTsdT-3'; antisense 5'-UUUGAACGGAGGCUCGAGAdTsdT-3'; RNA with 2'-O-methyl and phosphorothioate modifications, case key not given here, as printed in the source, key not given here) | 6.6 nM |
| XD-09758: siRNA targeting LST1 (sense 5'-ugAucAucAucAAaAcuuAdTsdT-3'; antisense 5'-uAAGUUUUGAUGAUGAUcAdTsdT-3'; as printed in the source, key not given here) | 8.21 nM |

These substances were tested on CLEC7A (assay: siRNA dose response, CLEC7A mRNA knockdown, Dual-Glo Luciferase Assay). Settings: Hepa1-6 + reporter plasmid, 24 hr.
Type: cell-based, human
Description: as §1, §2, §3, §4

| Substance | IC50 |
| --- | --- |
| XD-10569: siRNA targeting CLEC7A (sense 5'-gcucucAuAGGAAaGuuuudTsdT-3'; antisense 5'-AAAACUUUCCuAUGAGAGCdTsdT-3'; as printed in the source, key not given here) | 0.016 nM |

The substances below were run on CXorf21 (assay: siRNA dose response, CXorf21 mRNA knockdown, bDNA Assay). Settings: THP-1, 24 hr.
Type: cell-based, human
Description: as §1, §2, §3, §4

| Substance | IC50 |
| --- | --- |
| XD-10502: siRNA targeting CXorf21 (sense 5'-cuGucAGAAGGGuaucucAdTsdT-3'; antisense 5'-UGAGAuACCCUUCUGAcAGdTsdT-3'; RNA with 2'-O-methyl and phosphorothioate modifications, case key not given here, as printed in the source, key not given here) | 6.03 nM |
| XD-10503: siRNA targeting CXorf21 (sense 5'-cuAcGuGAGcuGcaAAucAdTsdT-3'; antisense 5'-UGAUUUGcAGCUcACGuAGdTsdT-3'; RNA with 2'-O-methyl and phosphorothioate modifications, case key not given here, as printed in the source, key not given here) | 0.654 nM |
| XD-10504: siRNA targeting CXorf21 (sense 5'-gguGAuGGccAuuaAuucAdTsdT-3'; antisense 5'-UGAAUuAAUGGCcAUcACCdTsdT-3'; as printed in the source, key not given here) | 1.76 nM |
| XD-10505: siRNA targeting CXorf21 (sense 5'-cauuAuGGAcAccguGuuudTsdT-3'; antisense 5'-AAAcACGGUGUCcAuAAUGdTsdT-3'; RNA with 2'-O-methyl and phosphorothioate modifications, case key not given here, as printed in the source, key not given here) | 13.1 nM |
| XD-10506: siRNA targeting CXorf21 (sense 5'-gucuGAAcucAucauGAcAdTsdT-3'; antisense 5'-UGUcAUGAUGAGUUcAGACdTsdT-3'; as printed in the source, key not given here) | 0.75 nM |
| XD-10508: siRNA targeting CXorf21 (sense 5'-caAuGuAAAuccAuAGAGAdTsdT-3'; antisense 5'-UCUCuAUGGAUUuAcAUUGdTsdT-3'; as printed in the source, key not given here) | 1.65 nM |
